PubChem BioAssay (NCI)
Where “and” joins values, the source holds several entries; their conditions need not be identical. Equal values may be shown once.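 In this assay, cells in 96-well plates receive the compound at five concentrations for 48 hours. Endpoints are linearly interpolated between the surrounding concentrations. GI50 marks 50% less growth. TGI denotes the concentration required for complete inhibition of growth.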

What was measured:
Assay in all cases: NCI tumour cell line growth inhibition, 48 h
[1] = tested on: MDA-MB-231 breast
[2] = tested on: SNB-75 CNS
[3] = tested on: MCF7 breast
[4] = tested on: HL-60(TB) leukemia
[5] = tested on: IGROV1 ovarian
[6] = tested on: SF-268 CNS
[7] = tested on: ACHN renal
[8] = tested on: SR leukemia
[9] = tested on: SN12C renal
[10] = tested on: A498 renal

Row | Structure (SMILES) | GI50 [1] | TGI [1] [µM] | GI50 [2] | TGI [2] | GI50 [3] | TGI [3] | GI50 [4] | TGI [4] | GI50 [5] | TGI [5] | GI50 [6] | TGI [6] [µM] | GI50 [7] | TGI [7] | GI50 [8] | TGI [8] | GI50 [9] | TGI [9] | GI50 [10] [µM] | TGI [10]
1 | NS(=O)(=O)NCCNc1nonc1C(=Nc1ccc(F)c(Br)c1)NO | 34 µM | > 100 | 15.2 µM | > 100 µM | 32.9 µM | > 100 µM | 36.9 µM | > 100 µM | 52.3 µM | > 100 µM | 38.8 µM | > 100 | 31.2 µM | > 100 µM | 30.2 µM | > 100 µM | 41.3 µM | > 100 µM |  | 
2 | NS(=O)(=O)c1ccc(N(/C=C/C(=O)C(F)(F)F)Cc2ccc(Cl)cc2)cc1 | 18.3 µM | 57.8 | 32.2 µM | 65.1 µM | 93.9 µM | > 100 µM | 39 µM | 78.3 µM |  |  | 74.3 µM | > 100 | 31.7 µM | 78.1 µM | 20.5 µM | 43.5 µM | 21.1 µM | 56.2 µM | 17.4 | 41.2 µM
3 | CN(CC(=O)Nc1nc2ccccc2[nH]1)S(=O)(=O)c1ccc(Cl)cc1 | > 100 µM | > 100 | 22.1 µM | 78.8 µM | > 100 µM | > 100 µM | > 100 µM | > 100 µM | 21 µM | > 100 µM | 43.2 µM | > 100 | > 100 µM | > 100 µM | > 100 µM | > 100 µM | > 100 µM | > 100 µM | > 100 | > 100 µM
4 | CCC(=O)Nc1ccc(C)c(-c2ccc(C(=O)NCC3CC3)cc2)c1 | > 25 µM | > 25 | > 25 µM | > 25 µM | > 25 µM | > 25 µM | > 25 µM | > 25 µM | > 25 µM | > 25 µM | > 25 µM | > 25 | > 25 µM | > 25 µM | > 25 µM | > 25 µM | > 25 µM | > 25 µM | > 25 | > 25 µM
5 | C/C(O)=C(\C#N)C(=O)Nc1ccc(C(F)(F)F)cc1 | 26.3 µM | > 100 | > 100 µM | > 100 µM | 38.5 µM | > 100 µM | 64.3 µM | > 100 µM | 28.4 µM | > 100 µM | 15 µM | > 100 | 45.7 µM | > 100 µM | > 100 µM | > 100 µM | 29.1 µM | > 100 µM | 1.36 | 52.9 µM
6 | COc1cc(C2=N/C(=C/c3cccs3)C(=O)O2)cc(OC)c1OC |  | > 100 |  | > 100 µM |  | > 100 µM |  | > 100 µM |  | > 100 µM |  | > 100 |  | > 100 µM |  | > 100 µM |  | > 100 µM |  | > 100 µM
7 | Cc1ccc(C(=O)/C(=C\c2ccc([N+](=O)[O-])cc2)S(=O)Cc2ccc(Cl)cc2)cc1 (centres undefined) | 1.86 µM | 3.88 | 1.53 µM | 3.25 µM | 1.38 µM | 3.68 µM | 2.47 µM | 6.82 µM | 1.77 µM | 3.45 µM | 1.75 µM | 3.42 | 2.09 µM | 4.98 µM | 1.13 µM | 10.1 µM | 1.76 µM | 3.64 µM | 2.61 | 7.63 µM
8 | Cc1ccc(NS(=O)(=O)c2cccc(C#N)c2)c2[nH]cc(C#N)c12 | 13.6 µM and 22 µM | > 85 | 6.51 µM and 7.05 µM | 52.3 µM and 29.4 µM | 2.53 µM and 16.8 µM | > 100 µM | 20.1 µM and 26.8 µM | 65.4 µM and > 82.2 µM |  | > 100 µM | 35 µM and 30.9 µM | > 100 | 12.6 µM and 16.3 µM | > 96.7 µM and 98.3 µM | 18.2 µM and 6.8 µM | > 100 µM | 25.5 µM and 27.3 µM | > 94.7 µM |  | 5.32 µM and 51.2 µM
9 | CC(C)=CCC/C(C)=C\CCC1(C)OC(=O)C2CC21 (centres undefined) |  | > 100 |  | > 100 µM | 64.9 µM and 21.6 µM | > 100 µM and 52.6 µM |  | 49.9 µM and 26.6 µM | > 100 µM and 18.2 µM | > 100 µM and 37.2 µM |  | > 100 | > 100 µM and 25.1 µM | > 100 µM and 59.8 µM | 24.3 µM and 6.4 µM | > 100 µM and 37.2 µM | > 100 µM and 26.4 µM | > 100 µM and 64.2 µM |  | > 100 µM
10 | O=C1/C(=C/c2ccc(Cl)cc2)CCC/C1=C\c1ccc(Cl)cc1 | 9.83 µM | > 100 | > 100 µM | > 100 µM | 2.93 µM | > 100 µM | 3.56 µM | > 100 µM | 4.13 µM | > 100 µM | 3.24 µM | 12.7 | 6.83 µM | > 100 µM | 2.77 µM | > 100 µM | 6.06 µM | > 100 µM | 2.3 | 8.69 µM
11 | COc1ccc2c(c1)C(=O)/C(=C/c1ccc([N+](=O)[O-])o1)O2 | 1.41 µM | 3.17 | 1.73 µM | 5.69 µM | 0.716 µM | 2.84 µM | 1.74 µM | 4.19 µM | 1.02 µM | 3.58 µM | 1.85 µM | 4.02 | 0.758 µM | 2.02 µM | 0.198 µM | 1.23 µM | 1.91 µM | 4.36 µM | 1.64 | 4.12 µM
12 | [N-]=[N+]=NCCCn1c2c(c3ccc([N+](=O)[O-])cc3c1=O)C(=O)c1cc(F)ccc1-2 | 30.3 µM | > 100 | 2.13 µM | 29 µM | 0.311 µM | > 55.1 µM | 0.202 µM | 1.64 µM | 2.3 µM | > 30.2 µM |  | 4.32 | 0.269 µM | 1.55 µM | 0.113 µM | 2.86 µM | 0.703 µM |  | 11.8 | 72.2 µM
13 | O=C(Nc1cccc(Cl)c1)c1cccc(NC2=C(Cl)C(=O)N(Cc3ccccc3)C2=O)c1 | 4.54 µM | > 100 | > 100 µM | > 100 µM | 25.6 µM | 83.7 µM | 12.6 µM | 31.8 µM | 3.12 µM | 9.81 µM | 25.5 µM | 94.4 | 87.4 µM | > 100 µM | 2.32 µM | 10.5 µM | 2.62 µM | 56.9 µM | > 100 | > 100 µM
14 | CSC(=S)OC1CC(n2cnc3c(NC(=O)c4ccccc4)ncnc32)OC1CO[Si](C)(C)C(C)(C)C (centres undefined) |  | > 46.4 |  | 52 µM |  | 40.3 µM |  | 32.6 µM |  | 44.2 µM |  | > 56.2 |  | > 56.2 µM |  | > 50 µM |  | 52.2 µM |  | > 31.6 µM
15 | CC(C(N)C(=O)NC(C(=O)O)C1OC(n2ccc(=O)[nH]c2=O)C(O)C1O)C(O)c1ccc(O)cn1 (centres undefined) |  | > 100 |  | > 100 µM |  | > 100 µM |  | > 100 µM |  | > 100 µM |  | > 100 |  | > 100 µM |  | > 100 µM |  | > 100 µM |  | 
16 | CC1(C)NCCC[C@]2(C)[C@H]3CC[C@@H]4[C@H]5[C@H](C(=O)/C=C/c6ccccn6)CC[C@]5(CO)CC[C@@]4(C)[C@]3(C)CC[C@@H]12 | 2.29 µM | 5.64 |  |  | 1.85 µM | 5.8 µM | 1.84 µM | 4.7 µM |  |  | 11.2 µM | 31.2 | 3.58 µM | 13.6 µM | 1.81 µM | 6.27 µM | 3.51 µM | 16.8 µM | 8.7 | 23.5 µM
17 | N#Cc1cc(S(=O)(=O)Nc2nnc(-c3ccccc3)c(-c3ccccc3)n2)c(SCc2ccccc2)cc1Cl | 23.3 µM | 83.8 |  |  | 31 µM | > 100 µM | 19.9 µM | 44.8 µM | 29.7 µM | 83.5 µM | 29.2 µM | > 100 | 21.5 µM | 42.6 µM | 27.5 µM | > 100 µM | 20.3 µM | 47 µM | 23.5 | 45.2 µM
18 | C=C1C(=O)O[C@H]2[C@H]1CC/C(COC(=O)C(C)c1ccc(CC(C)C)cc1)=C\CC[C@@]1(C)O[C@@H]21 (some centres undefined) | 1.38 µM | 2.73 | 1.68 µM | 3.16 µM | 0.791 µM | 2.49 µM | 0.647 µM | 2.68 µM | 1.07 µM | 2.33 µM | 1.72 µM | 3.5 | 1.29 µM | 2.56 µM | 0.287 µM | 1.86 µM | 1.34 µM | 2.72 µM |  | 
19 | CCN(CC)C(=S)SCN1C(=O)c2ccccc2S1(=O)=O | 50.9 µM | > 100 | 46.7 µM | > 91.5 µM | 0.562 µM | > 100 µM |  |  | 55.2 µM | > 100 µM | 34.2 µM | > 100 | 64.6 µM | > 100 µM | < 0.01 µM | 27.7 µM | 53.7 µM | > 100 µM | 42.9 | > 100 µM
20 | NS(=O)(=O)CC1CC[CH-]CC1.[Cl-].[Cl-].[Cl-].[Cl-].[Cl-].[Sb+5].c1ccncc1 | > 100 µM | > 100 | > 100 µM | > 100 µM | > 100 µM | > 100 µM |  |  | > 100 µM | > 100 µM | > 100 µM | > 100 | > 100 µM | > 100 µM | > 100 µM | > 100 µM | > 100 µM | > 100 µM | > 100 | > 100 µM
